According to PubChem BioAssay (NCI):
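1) Cells in 96-well plates. 2) Compound, 48 h, 5 concentrations. 3) Linear interpolation between surrounding doses. 4) Unreached endpoint = highest concentration. The concentration for 50% growth inhibition is given as GI50. TGI is the concentration that stops growth completely.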

How the values were obtained:
Assay in all cases: NCI-60 cell line screen, 48 h
[1] = test system: 786-0 renal
[2] = test system: A498 renal
[3] = test system: A549 NSCLC
[4] = test system: ACHN renal
[5] = test system: BT-549 breast
[6] = test system: CAKI-1 renal
[7] = test system: CCRF-CEM leukemia
[8] = test system: COLO 205 colon
[9] = test system: DU-145 prostate
[10] = test system: EKVX NSCLC
[11] = test system: HCC-2998 colon
[12] = test system: HCT-116 colon
[13] = test system: HCT-15 colon
[14] = test system: HL-60(TB) leukemia
[15] = test system: HOP-62 NSCLC
[16] = test system: HOP-92 NSCLC
[17] = test system: HS 578T breast
[18] = test system: HT29 colon
[19] = test system: IGROV1 ovarian
[20] = test system: K-562 leukemia
[21] = test system: KM12 colon
[22] = test system: LOX IMVI melanoma
[23] = test system: M14 melanoma
[24] = test system: MALME-3M melanoma
[25] = test system: MCF7 breast
[26] = test system: MDA-MB-231 breast
[27] = test system: MDA-MB-435
[28] = test system: MDA-MB-468 breast
[29] = test system: MOLT-4 leukemia
[30] = test system: NCI-H226 lung
[31] = test system: NCI-H23 lung
[32] = test system: NCI-H460 lung
[33] = test system: NCI-H522 lung
[34] = test system: NCI/ADR-RES ovarian
[35] = test system: OVCAR-3 ovarian
[36] = test system: OVCAR-4 ovarian
[37] = test system: OVCAR-5 ovarian
[38] = test system: OVCAR-8 ovarian
[39] = test system: PC-3 prostate
[40] = test system: RPMI-8226 leukemia
[41] = test system: RXF 393 renal
[42] = test system: SF-268 CNS
[43] = test system: SF-295 CNS
[44] = test system: SF-539 CNS
[45] = test system: SK-MEL-2 melanoma
[46] = test system: SK-MEL-28 melanoma
[47] = test system: SK-MEL-5 melanoma
[48] = test system: SK-OV-3 ovarian
[49] = test system: SN12C renal
[50] = test system: SNB-19 CNS
[51] = test system: SR leukemia
[52] = test system: SW-620 colon
[53] = test system: T-47D breast
[54] = test system: TK-10 renal
[55] = test system: U251 CNS
[56] = test system: UACC-257 melanoma
[57] = test system: UACC-62 melanoma
[58] = test system: UO-31 renal

O=S(=O)(Nc1cccc(-n2cnc3cc(-c4ccc(O)cc4)ccc32)c1)C1CC1
GI50 [1]: 4.7 µM | TGI [1]: 16.9 µM | GI50 [2]: 3.31 µM | TGI [2]: 10.4 µM | GI50 [3]: 4.04 µM | TGI [3]: 17.1 µM | GI50 [4]: 4.86 µM | TGI [4]: 16.8 µM | GI50 [5]: 2.59 µM | TGI [5]: 12.5 µM | GI50 [6]: 3.25 µM | TGI [6]: 14.6 µM | GI50 [7]: 2.62 µM | TGI [7]: 14.5 µM | GI50 [8]: 3.17 µM | TGI [8]: 11.1 µM | GI50 [9]: 4.19 µM | TGI [9]: 15 µM | GI50 [10]: 6.56 µM | TGI [10]: 21.6 µM | GI50 [11]: 4.4 µM | TGI [11]: 19.6 µM | GI50 [12]: 2.82 µM | TGI [12]: 15.3 µM | GI50 [13]: 1.62 µM | TGI [13]: 14.1 µM | GI50 [14]: 1.38 µM | TGI [14]: 5.63 µM | GI50 [15]: 4.63 µM | TGI [15]: 19.4 µM | GI50 [16]: 1.43 µM | TGI [16]: 8.43 µM | GI50 [17]: 1.93 µM | TGI [17]: 7.42 µM | GI50 [18]: 2.6 µM | TGI [18]: 8.59 µM | GI50 [19]: 4.58 µM | TGI [19]: 17.7 µM | GI50 [20]: 0.546 µM | TGI [20]: > 100 µM | GI50 [21]: 0.654 µM | TGI [21]: 13.2 µM | GI50 [22]: 3.14 µM | TGI [22]: 14.7 µM | GI50 [23]: 2.36 µM | TGI [23]: 17.6 µM | GI50 [24]: 3.54 µM | TGI [24]: 18.4 µM | GI50 [25]: 1.96 µM | TGI [25]: 16.8 µM | GI50 [26]: 3.4 µM | TGI [26]: 20.8 µM | GI50 [27]: 0.311 µM | TGI [27]: 1.33 µM | GI50 [28]: 1.44 µM | TGI [28]: 6.58 µM | GI50 [29]: 2.01 µM | TGI [29]: 14.1 µM | GI50 [30]: 6.23 µM | TGI [30]: 27.8 µM | GI50 [31]: 5.04 µM | TGI [31]: 20.6 µM | GI50 [32]: 3.03 µM | TGI [32]: 13 µM | GI50 [33]: 0.82 µM | TGI [33]: 3.66 µM | GI50 [34]: 3.52 µM | TGI [34]: 36.5 µM | GI50 [35]: 2.14 µM | TGI [35]: 10.3 µM | GI50 [36]: 4.03 µM | TGI [36]: 17.3 µM | GI50 [37]: 6.77 µM | TGI [37]: 20.6 µM | GI50 [38]: 3.23 µM | TGI [38]: 14.5 µM | GI50 [39]: 3.2 µM | TGI [39]: 17 µM | GI50 [40]: 2.83 µM | TGI [40]: 9.46 µM | GI50 [41]: 2.19 µM | TGI [41]: 7.7 µM | GI50 [42]: 3.79 µM | TGI [42]: 17.2 µM | GI50 [43]: 2.36 µM | TGI [43]: 11.4 µM | GI50 [44]: 1.53 µM | TGI [44]: 6.1 µM | GI50 [45]: 2.87 µM | TGI [45]: 14.5 µM | GI50 [46]: 6.68 µM | TGI [46]: 20 µM | GI50 [47]: 3.13 µM | TGI [47]: 14.1 µM | GI50 [48]: 3.84 µM | TGI [48]: 13.4 µM | GI50 [49]: 3.7 µM | TGI [49]: 15.1 µM | GI50 [50]: 5.95 µM | TGI [50]: 19.8 µM | GI50 [51]: 0.391 µM | TGI [51]: 65.5 µM | GI50 [52]: 1.5 µM | TGI [52]: 17.4 µM | GI50 [53]: 2.73 µM | TGI [53]: 14.5 µM | GI50 [54]: 8.98 µM | TGI [54]: 20.9 µM | GI50 [55]: 2.65 µM | TGI [55]: 13.8 µM | GI50 [56]: 10.2 µM | TGI [56]: 22 µM | GI50 [57]: 1.62 µM | TGI [57]: 14.3 µM | GI50 [58]: 2.19 µM | TGI [58]: 13.9 µM
